These results are taken from patent publication US20070293477A1, “Novel Compounds” (SMITHKLINE BEECHAM CORPORATION, priority 2004, published 2007).

For one assay, the target named is T1, TRPV4 channel receptors (Bos taurus, UniProt A0A8F4X677).
T1 construct: obtained using this method in bovine articular chondrocytes; endogenous in cells; host or cells: bovine articular chondrocytes
T1 sequence (A0A8F4X677 1-871): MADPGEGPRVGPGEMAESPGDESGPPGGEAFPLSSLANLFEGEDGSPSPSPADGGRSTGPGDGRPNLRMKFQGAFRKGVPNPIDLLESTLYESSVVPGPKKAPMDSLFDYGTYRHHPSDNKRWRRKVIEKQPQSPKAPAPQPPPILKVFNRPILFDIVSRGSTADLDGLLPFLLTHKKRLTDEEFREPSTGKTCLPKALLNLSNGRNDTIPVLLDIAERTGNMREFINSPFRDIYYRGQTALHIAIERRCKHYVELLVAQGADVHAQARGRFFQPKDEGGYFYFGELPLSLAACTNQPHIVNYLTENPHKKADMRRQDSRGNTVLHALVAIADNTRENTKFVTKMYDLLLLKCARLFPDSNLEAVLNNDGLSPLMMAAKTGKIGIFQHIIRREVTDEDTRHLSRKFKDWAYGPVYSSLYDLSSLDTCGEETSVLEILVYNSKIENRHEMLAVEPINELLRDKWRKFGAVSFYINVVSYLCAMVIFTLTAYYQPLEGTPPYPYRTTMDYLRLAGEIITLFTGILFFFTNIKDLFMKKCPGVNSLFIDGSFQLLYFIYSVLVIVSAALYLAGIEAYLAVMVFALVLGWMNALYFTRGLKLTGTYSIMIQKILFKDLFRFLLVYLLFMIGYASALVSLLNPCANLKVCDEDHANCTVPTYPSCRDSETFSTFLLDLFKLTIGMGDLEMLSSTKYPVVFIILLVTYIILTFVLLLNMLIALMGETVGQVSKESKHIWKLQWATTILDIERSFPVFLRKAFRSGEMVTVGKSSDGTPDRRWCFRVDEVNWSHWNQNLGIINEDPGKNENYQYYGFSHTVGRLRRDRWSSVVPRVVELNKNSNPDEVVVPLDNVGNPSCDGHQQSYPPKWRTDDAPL
The assay can be described thus: Ca2+ influx, Fura-2 fluorescence on FlexStation in bovine articular chondrocytes. Particulars: Fura-2, FlexStation. The format is cell-based. The source says: Ca^2+ influx mediated through TRPV4 channel receptors can be measured using articular chondrocytes from such species as, but not limited to, human, rat, canine, rabbit, monkey, and bovine, using standard techniques in the art such as, but not limited to, Fura-2 (Invitrogen/Molecular Probes, Eugene, Oreg.) fluorescence using a FlexStation (manufactured by Molecular Devices, Sunnyvale, Calif.). Table 1 lists biological data for several representative compounds obtained using this method in bovine articular chondrocytes.
(§1) All exemplary compounds of the present invention were assessed using at least one of the biological assays presented above. Compounds presented in the Examples had EC50 values of about 0.01 μM to about 30 μM as measured by Flex Station using bovine articular chondrocytes and pEC50 values between about 4.5 to about 7.0 as measured by FLIPR assay using TRPV4 expressing HEK cells.
Broadly, the EC50 is the concentration needed to bring the measured effect to its halfway point. Lower therefore signals an effect from little substance. `CC(C)C[C@H](NC(=O)c1cc2ccccc2s1)C(=O)N[C@@H]1CCCN(S(=O)(=O)c2ccccc2C#N)CC1` [Example 5, N-{(1S)-1-[({(4R)-1-[(2-cyanophenyl)sulfonyl]hexahydro-1H-azepin-4-yl}amino)carbonyl]-3-methylbutyl}-1-benzothiophene-2-carboxamide] returned an EC50 of 0.14 to 1 µM.

`CC(C)C[C@H](NC(=O)c1cc2ccccc2s1)C(=O)N[C@@H]1CCCN(S(=O)(=O)c2ccc(C#N)cc2)CC1` [Example 8, N-{(1S)-1-[({(4R)-1-[(4-Cyanophenyl)sulfonyl]hexahydro-1H-azepin-4-yl}amino)carbonyl]-3-methylbutyl}-1-benzothiophene-2-carboxamide]: the EC50 lay in the range of 10 to 30 µM. `CC(C)C[C@H](NC(=O)c1cc2ccccc2n1C)C(=O)N(C)C1CCCN(S(=O)(=O)c2ccccc2C#N)CC1` (stereo partly drawn) [Example 11, N-((1S)-1-{[{1-[(2-Cyanophenyl)sulfonyl]hexahydro-1H-azepin-4-yl}(methyl)amino]carbonyl}-3-methylbutyl)-1-methyl-1H-indole-2-carboxamide] yielded an EC50 of 1.01 to 10 µM.

The target of another assay is T2, TRPV4 channel receptor (Homo sapiens, UniProt Q9HBA0).
T2 construct: expressed in transfected cells; host or cells: HEK cells
T2 sequence (Q9HBA0 whole entry): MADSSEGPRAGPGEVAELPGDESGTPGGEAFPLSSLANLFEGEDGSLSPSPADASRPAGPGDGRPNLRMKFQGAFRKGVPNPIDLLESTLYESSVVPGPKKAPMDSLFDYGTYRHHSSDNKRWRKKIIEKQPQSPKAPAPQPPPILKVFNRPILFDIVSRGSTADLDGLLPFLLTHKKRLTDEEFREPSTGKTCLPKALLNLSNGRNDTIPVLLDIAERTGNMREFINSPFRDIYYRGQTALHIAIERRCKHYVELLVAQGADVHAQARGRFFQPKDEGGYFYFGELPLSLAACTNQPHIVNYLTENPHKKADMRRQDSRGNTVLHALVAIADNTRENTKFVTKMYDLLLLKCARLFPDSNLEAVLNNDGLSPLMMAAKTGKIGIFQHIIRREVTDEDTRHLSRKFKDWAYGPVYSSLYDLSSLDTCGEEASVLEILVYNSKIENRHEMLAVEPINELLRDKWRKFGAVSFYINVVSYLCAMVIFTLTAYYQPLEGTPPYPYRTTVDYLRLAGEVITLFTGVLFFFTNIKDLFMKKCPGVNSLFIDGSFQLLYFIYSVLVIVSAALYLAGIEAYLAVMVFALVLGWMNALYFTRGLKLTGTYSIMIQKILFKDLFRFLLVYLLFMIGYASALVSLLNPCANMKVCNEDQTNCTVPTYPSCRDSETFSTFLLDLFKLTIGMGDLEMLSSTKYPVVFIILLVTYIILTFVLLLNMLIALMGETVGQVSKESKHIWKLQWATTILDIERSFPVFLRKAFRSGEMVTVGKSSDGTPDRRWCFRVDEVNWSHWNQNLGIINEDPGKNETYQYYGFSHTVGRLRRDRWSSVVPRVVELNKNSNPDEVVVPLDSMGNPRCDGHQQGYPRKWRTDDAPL
Nature of the assay: FLIPR assay using TRPV4 expressing HEK cells. The class given is cell-based. Particulars: FLIPR method; pEC50 = −log10(EC50 μM).
Source text: Other techniques used to measure TRPV4 channel receptor activation in chondrocytes include, but are not limited to: FLIPR assay, measuring a compound's capability to reduce the amount of ADAMTSs produced and/or released in response to a catabolic stimulus by a cell comprising a TRPV4 channel receptor; measuring a compound's capability to reduce the amount of MMPs produced and/or released in response to a catabolic stimulus by a cell comprising a TRPV4 channel receptor; measuring a compound's capability to effect the amount of nitric oxide (NO) produced in response to a catabolic stimulus by a cell comprising a TRPV4 channel receptor; and measuring a compound's capability to attenuate the inhibition of matrix synthesis in response to a catabolic stimulus by a cell comprising a TRPV4 channel receptor.
as §1
In turn, `CC(C)C[C@H](NC(=O)c1cc2ccccc2n1C)C(=O)NC1CCCN(S(=O)(=O)c2ccc(Cl)cc2)CC1` (mixture of isomers) [Example 3, 1-Methyl-1H-indole-2-carboxylic acid {(S)-1-[1-(4-chloro-benzenesulfonyl)-azepan-4-ylcarbamoyl]-3-methyl-butyl}-amide] had an EC50 of 10 to 31.6 µM. Compound `CC(C)C[C@H](NC(=O)c1cc2ccccc2s1)C(=O)N[C@@H]1CCCN(S(=O)(=O)c2ccc(Cl)cc2Cl)CC1` [Example 6, N-{(1S)-1-[({(4R)-1-[(2,4-Dichlorophenyl)sulfonyl]hexahydro-1H-azepin-4-yl}amino)carbonyl]-3-methylbutyl}-1-benzothiophene-2-carboxamide] showed an EC50 of 0.1 to 0.794 µM.

In turn, `CC(C)C[C@H](NC(=O)c1cc2ccccc2n1C)C(=O)N(C)C1CCCN(S(=O)(=O)c2ccccc2C#N)CC1` (stereo partly drawn) [Example 11, N-((1S)-1-{[{1-[(2-Cyanophenyl)sulfonyl]hexahydro-1H-azepin-4-yl}(methyl)amino]carbonyl}-3-methylbutyl)-1-methyl-1H-indole-2-carboxamide] showed an EC50 of 1 to 7.94 µM.
